Experimental data from ChEMBL document CHEMBL1201862, “PubChem BioAssay data set” (2004).
“And” between values parts separate entries of the source, which are not always exact repeats. Equal entries are not always repeated.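 Each compound was tested at five concentrations against cells in 96-well plates for 48 hours. At the GI50, growth is halved.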 The source made the active and inactive calls. Cut-off read from the data, not from the text of the source: active = GI50 up to about 1.1 µM and inactive = higher.

Key:
Assay in all cases: DTP human tumour cell line panel, 48 h
NCI-H522 = test system: NCI-H522
SF-295 = test system: SF-295
MDA-N = test system: MDA-N
BT-549 = test system: BT-549
HOP-62 = test system: HOP-62
HT-29 = test system: HT-29
NCI/ADR-RES = test system: NCI/ADR-RES
OVCAR-4 = test system: OVCAR-4
U-251 = test system: U-251
CAKI-1 = test system: CAKI-1
RPMI-8226 = test system: RPMI-8226
M14 = test system: M14
HCT-116 = test system: HCT-116
OVCAR-8 = test system: OVCAR-8
SF-539 = test system: SF-539
UO-31 = test system: UO-31
MDA-MB-231 = test system: MDA-MB-231
A549 = test system: A549
A498 = test system: A498
NCI-H226 = test system: NCI-H226
DU-145 = test system: DU-145
Malme-3M = test system: Malme-3M
786-0 = test system: 786-0
RXF 393 = test system: RXF 393
HOP-92 = test system: HOP-92
HL-60 = test system: HL-60
SK-MEL-2 = test system: SK-MEL-2
SW-620 = test system: SW-620
SNB-75 = test system: SNB-75
OVCAR-5 = test system: OVCAR-5
SN12C = test system: SN12C
HCT-15 = test system: HCT-15
HCC 2998 = test system: HCC 2998
K562 = test system: K562
Hs-578T = test system: Hs-578T
TK-10 = test system: TK-10
EKVX = test system: EKVX
UACC-62 = test system: UACC-62
SF-268 = test system: SF-268
UACC-257 = test system: UACC-257
KM12 = test system: KM12
NCI-H460 = test system: NCI-H460
COLO 205 = test system: COLO 205
PC-3 = test system: PC-3
SNB-19 = test system: SNB-19
MOLT-4 = test system: MOLT-4
CCRF-CEM = test system: CCRF-CEM
ACHN = test system: ACHN
LOX IMVI = test system: LOX IMVI
MDA-MB-435 = test system: MDA-MB-435
SK-MEL-5 = test system: SK-MEL-5
SK-OV-3 = test system: SK-OV-3
SR = test system: SR
T47D = test system: T47D
SK-MEL-28 = test system: SK-MEL-28
OVCAR-3 = test system: OVCAR-3
MCF7 = test system: MCF7
NCI-H23 = test system: NCI-H23
M19-MEL = test system: M19-MEL

With `Cc1nc2ccc(S(=O)(=O)O)cc2c(=O)n1-c1ccc(C(=O)NN2C(=O)C(Cl)C2c2cccs2)cc1` (centres undefined) the GI50 (NCI-H522) was > 100 µM (inactive), the GI50 (SF-295) was > 100 µM (inactive) and the GI50 (MDA-N) was 26.1 µM (inactive). The GI50 (BT-549) was > 100 µM (inactive), the GI50 (HOP-62) was 23.1 µM (inactive) and the GI50 (HT-29) was > 100 µM (inactive). The GI50 (NCI/ADR-RES) was > 100 µM (inactive), the GI50 (OVCAR-4) was 24.5 µM (inactive) and the GI50 (U-251) was > 100 µM (inactive). The GI50 (CAKI-1) was > 100 µM (inactive), the GI50 (RPMI-8226) was > 100 µM (inactive) and the GI50 (M14) was 18.2 µM (inactive). The GI50 (HCT-116) was > 100 µM (inactive), the GI50 (OVCAR-8) was > 100 µM (inactive) and the GI50 (SF-539) was 48 µM (inactive). The GI50 (UO-31) was > 100 µM (inactive), the GI50 (MDA-MB-231) was 22.9 µM (inactive) and the GI50 (A549) was > 100 µM (inactive). The GI50 (A498) was > 100 µM (inactive), the GI50 (NCI-H226) was > 100 µM (inactive) and the GI50 (DU-145) was > 100 µM (inactive). For the same molecule, the GI50 (Malme-3M) was > 100 µM (inactive), the GI50 (786-0) was > 100 µM (inactive) and the GI50 (RXF 393) was > 100 µM (inactive). The GI50 (HOP-92) was > 100 µM (inactive), the GI50 (HL-60) was 17.8 µM (inactive) and the GI50 (SK-MEL-2) was 23.3 µM (inactive). For the same molecule, the GI50 (SW-620) was > 100 µM (inactive), the GI50 (SNB-75) was 50.4 µM (inactive) and the GI50 (OVCAR-5) was > 100 µM (inactive). For the same molecule, the GI50 (SN12C) was > 100 µM (inactive), the GI50 (HCT-15) was > 100 µM and the GI50 (HCC 2998) was > 100 µM (inactive). For the same molecule, the GI50 (K562) was > 100 µM (inactive), the GI50 (Hs-578T) was > 100 µM (inactive) and the GI50 (TK-10) was > 100 µM (inactive). The GI50 (EKVX) was 18.5 µM (inactive), the GI50 (UACC-62) was > 100 µM (inactive) and the GI50 (SF-268) was 20.7 µM (inactive). The GI50 (UACC-257) was > 100 µM (inactive), the GI50 (KM12) was > 100 µM (inactive) and the GI50 (NCI-H460) was > 100 µM (inactive). The GI50 (COLO 205) was > 100 µM (inactive), the GI50 (PC-3) was > 100 µM (inactive) and the GI50 (SNB-19) was > 100 µM (inactive). For the same molecule, the GI50 (MOLT-4) was > 100 µM (inactive), the GI50 (CCRF-CEM) was 63.1 µM (inactive) and the GI50 (ACHN) was > 100 µM (inactive). The GI50 (LOX IMVI) was > 100 µM (inactive), the GI50 (MDA-MB-435) was 27.5 µM (inactive) and the GI50 (SK-MEL-5) was > 100 µM (inactive). For the same molecule, the GI50 (SK-OV-3) was > 100 µM (inactive), the GI50 (SR) was > 100 µM (inactive) and the GI50 (T47D) was 31.3 µM (inactive). The GI50 (SK-MEL-28) was > 100 µM (inactive), the GI50 (OVCAR-3) was > 100 µM (inactive) and the GI50 (MCF7) was > 100 µM (inactive). The GI50 (NCI-H23) was > 100 µM (inactive).

For `COc1ccc(C(c2ccccc2)C(C)C(=O)c2c(C)cc(C)cc2C)cc1` (centres undefined), the GI50 (NCI-H522) was 37.8 µM (inactive) and 53.5 µM (inactive), the GI50 (HT-29) was 47.4 µM (inactive) and 56 µM (inactive) and the GI50 (RPMI-8226) was 69.8 µM (inactive) and 79.8 µM (inactive). The GI50 (Malme-3M) was 57.7 µM (inactive), the GI50 (K562) was 94.2 µM (inactive) and 53.7 µM (inactive) and the GI50 (M19-MEL) was 42.5 µM (inactive) and 59 µM (inactive).
